Assays:
[1] = DSS-induced colitis in mice, Coltect versus its components (Example 5b); format: in vivo, C57BL mice
Method: In these experiments the concentration of the ingredients used was determined based on their ratio in the Coltect mixture. As used in the above experiments, the Coltect concentration administered to the model animals was 150 mg/kg. Since a ratio of ⅔ Curcumin to ⅓ Green Tea was used in the Coltect mixture, the administered Curcumin concentration was 100 mg/kg and the Green tea concentration was 50 mg/kg. The Curcumin to Selenium ratio in the Coltect mixture was 500 mg Curcumin to 0.1 mg Selenium, therefore, the administered Selenium concentration was 0.02 mg/kg body weight.
Age- and sex-matched C57BL 5-weeks old female mice were obtained from Harlan Laboratories, Israel. After one week of acclimation, the mice (n=52) were treated with 2.5% DSS administered in the drinking water for 5 days ad libitum, followed by two days of tap water. The treatments were given in doses of 0.3 ml of tap water with 2% DMSO by oral gavage. The mice were randomly divided into 8 sub-groups (n=6) and a control group (n=4) treated as described in Table 8.

[2] = tested on: Aberrant Crypt Foci (ACF); assay: DMH-induced ACF formation, Coltect versus its ingredients (Example 5a); format: in vivo, Wistar rats; conditions: DMH 50 mg/kg rats; daily oral gavage 2 weeks; sacrificed after 2 months (FIG. 10A)
Method: In these experiments the concentration of the ingredients used was determined based on their ratio in the Coltect mixture. As used in the above experiments, the Coltect concentration administered to the model animals was 150 mg/kg. Since a ratio of ⅔ Curcumin to ⅓ Green Tea was used in the Coltect mixture, the administered Curcumin concentration was 100 mg/kg and the Green tea concentration was 50 mg/kg. The Curcumin to Selenium ratio in the Coltect mixture was 500 mg Curcumin to 0.1 mg Selenium, therefore, the administered Selenium concentration was 0.02 mg/kg body weight. The final administered concentrations of the Coltect components are presented in Table 6 below: Forty seven age- and sex-matched Wistar rats were obtained from the animal facility at TASMC. The rats were injected subcutaneously twice a week for two weeks with 0.3 ml of 50 mg/kg body weight DMH (Sigma-Aldrich, Israel) dissolved in PBS, and groups were randomly divided as shown in Table 7. The Coltect compound and its components were daily administered simultaneously for 2 weeks by oral gavage. The rats were sacrificed after 2 months. Reference is now made to FIG. 9 presenting Methylene blue ACF staining performed according to the protocol described in the above Example 1, of normal mucosa (A) aberrant crypt foci containing small ACF with 1-3 crypts (B) and large ACF with more than three crypts (C).

[3] = TNBS-induced IBD model in rats (Example 3); format: in vivo, Wistar rats; conditions: TNBS-induced model (FIG. 6); compared to negative and positive controls
Method: One day before the experiment the rats were weighted, marked according to the groups, and fasted for 24 hours (for colon emptying). At the day of the experiment the rats were anesthetized by an intra-peritoneal injection of halothene and colitis was induced by intra-rectal administration of 0.4 ml of a 25 mg/ml TNBS solution dissolved in 50% ethanol using an 8-cm long rubber catheter. Then, 0.4 ml of air was injected and the rats were kept in a Trendelenburg position for 30 sec to ensure that all TNBS solution left the catheter. Three rats received intra-rectal administration of saline and served as the negative control group. Coltect, 5-ASA, or their combination, were delivered by daily gavage of 0.5 ml solution starting from day 0. All rats were sacrificed after 7 days. Their 10-cm distal colon was removed, opened longitudinally along the anti-mesenteric side and was gently washed with ice-cold saline in order to remove all luminal content. Colon wet weight was weighed and the colonic injury was immediately examined under a stereomicroscope and the visible damage was scored, then part of the colons was placed in 10% formalin for histological evaluation and parts were frozen at […] for later evaluation. The induction and severity of colitis were evaluated by measuring: • 1. Daily body weight. • 2. Colon weight. • 3. Macro-Histological score damage.

[4] = tested on: Aberrant Crypt Foci (ACF); assay: DMH-induced CRC model of aberrant crypt foci (ACF) in rats (Example 1); format: in vivo, Wistar rats; conditions: DMH 30 mg/kg rats; oral gavage; colons stained 60 days after DMH; Coltect 150 mg/kg, 5-ASA 50 mg/kg
Method: Age- and sex-matched 23 Wistar rats were purchased from the animal facilities at the Tel-Aviv Sourasky Medical Center (TASMC). The rats were injected subcutaneously twice a week for two weeks with 0.3 ml of 30 mg/kg body weight DMH (Sigma-Aldrich, Israel) dissolved in PBS, and groups (n=5) were randomly divided as follows (Table 1): The Coltect mixture was dissolved in a solution of DMSO (50%) and tap water. The solution was administered to the rats by oral gavage for five days, starting at the first day of DMH injections. During the experiment, the rats were weighed twice a week. Sixty days after DMH injections the rats were sacrificed by CO2 flow. The colons were removed and flushed with isotonic saline solution, opened longitudinally, cut into three parts of equal length, and labeled as proximal, middle and distal segments. The colons were laid open on a Wattman paper and fixed flat in 4% buffered formalin solution. The ACF were visualized and counted by using methylene blue staining (0.2% solution) and photographed. […] The number and multiplicity of ACF for each colonic segment were evaluated and recorded. The number and multiplicity of ACF were recorded separately for each segment. To determine multiplicity of ACF, the number of crypts in each focus was defined and recorded.

[5] = DSS-induced IBD model in mice (Example 2); format: in vivo, C57BL mice; conditions: first experiment (FIG. 4A); DSS 2.5%; Coltect 150 mg/kg, 5-ASA 50 mg/kg oral gavage 7 days
Method: Age- and sex-matched C57BL 5-weeks old female mice were obtained from Harlan Laboratories, Israel. […] Four mice received saline (2.5%) and served as the negative control group. The mice were randomly divided into groups (n=8) and received the corresponding treatment starting from the first day for 7 days (Table 3). The treatments were given in doses of 0.5 ml of tap water with 2% DMSO by oral gavage. The following doses were used: Coltect-150 mg/kg body weight; 5-ASA-50 mg/kg body weight. All mice were sacrificed 7 days after the enema, their spleen and colon were removed, fixed in 10% formalin for histological evaluation and parts were frozen at […] for later examination. For macroscopic injury evaluation a revised colonic damage scoring system was used as described by Morris et al. Thus, the severity of colitis was determined based on the following parameters: • 1. Disease Activity Index (DAI): weight loss, gross bleeding, stool consistency (Table 2)—were daily recorded. • 2. Spleen weight. • 3. Colon length. • 4. Histological score. For histological injury evaluation tissues fixed in 10% formalin, were embedded in paraffin wax and cut. 4 μm sections were histologically stained and evaluated by light microscopy for ulceration and inflammation. [table]

Structure (SMILES): C[Se]CC[C@H](N)C(=O)O [Selenium, Selenomethionine]
- DAI score ([1]; DSS 2.5% mice (FIG. 11), oral gavage): 2.33±1.33
- Colon length, in words ([1]; DSS-induced mice, day seven (FIG. 12)): longer colons
- Reduction in number of ACFs relative to the positive control [2]: about 30%

Structure (SMILES): Nc1ccc(O)c(C(=O)O)c1 [5-ASA, 5-aminosalicylic acid]
- Changes in body weight [3]: no substantial changes in body weight
- Number of crypts in treated colons: 1-3 crypts [4]: 28 ± 4.1
- Number of crypts in treated colons: >4 crypts [4]: 11.6 ± 3.9
- DAI score [5]: relatively higher DAI scores

Reference: patent publication US20100303904A1, “TABLET WITH REMEDIAL COMPOSITION AND METHODS FOR TREATING MEDICAL DISORDERS AND AILMENTS” (BIO-PRO MEDICAL LTD., priority 2007, published 2010)
